Measurements reported in patent publication US4990520A, “2-,4- or 5-substituted thiazole derivatives” (American Cyanamid Company, priority 1990, dated 1991).
Where a name gives a salt, the structure may show the parent alone.

Columns and labels:
[1] = molecular target: muscarinic cholinergic receptor; assay: [3H] Quinuclinyl Benzilate (3H-QNB) Binding Assay; parameters: species or system rat; settings: pH 7.4
[2] = molecular target: high affinity agonist conformation of the muscarinic cholinergic receptor; assay: [3H]-Cis-methyldioxolane (3H-CD) Binding Assay (High Affinity); settings: rat cerebral cortex, 1.0 nM 3H-CD, 25° C., 120 minutes, pH 7.4
SDAT patients = settings: versus anticholinesterase inhibitor physostigmine; cited from earlier work
postsynaptic cholinergic = settings: cited from earlier work
presynaptic cholinergic = settings: cited from earlier work
[3] = rat cerebral cortex, 0.25 nM 3H-QNB, 25° C., 120 minutes
[4] = rat cerebral cortex, 0.25 nM 3H-QNB, 25° C., 120 minutes, hydrochloride

Compound | IC50 [1, 3] [µM] | IC50 [2] [µM] | also measured
C(#Cc1cncs1)CN1CCCC1 [5-[3-(1-Pyrrolidinyl)-1-propynyl] thiazole] [5-[3-(1-Pyrrolidinyl)-1-propynyl]thiazole] | 115 | 4.7 | –
Cl/C(=C/c1nccs1)CN1CCCC1 [2-[2-Chloro-3-(1-pyrrolidinyl)-1-propenyl]thiazole,(E)] | 186 | 2.23 | –
1-[3-(5-Thiazolyl)-2-propenyl]piperidine | 164 | 12.6 | –
C(#Cc1cncs1)CN1CCCCC1 [1-[3-(5-Thiazolyl)-2-propynyl]piperidine, hydrochloride] | 119 | 0.658 | –
C[N+](C)(C)CC#Cc1cscn1 [N,N,N-Trimethyl-3-(4-thiazolyl)-2-propyn-1-aminium, iodide] | – | 1.46 | IC50 [1]: 119 µM
C[N+](C)(C)CC#Cc1cncs1 [N,N,N-Trimethyl-3-(5-thiazolyl)-2-propyn-1-aminium iodide] | 131 | 0.273 | –
Cl/C(=C/c1nccs1)CN1CCCCC1 [1-[2-Chloro-3-(2-thiazolyl)-2-propenyl]piperidine,(E)] | 117 | 6.59 | –
C(#Cc1nccs1)CN1CCCC1 [2-[3-(1-Pyrrolidinyl)-1-propynyl]thiazole] | 44 | 1.43 | –
CN(C)CC#Cc1cscn1 [--N, --N-Dimethyl-3-(4-thiazoyl)-2-propyn-1-amine] [N,N-Dimethyl-3-(4-thiazoyl)-2-propyn-1-amine] | 381 | 19 | –
CN(C)CC#Cc1nccs1 [N,N-Dimethyl-3-(2-thiazolyl)-2-propyn-1-amine] | 1310 | 9.98 | –
C(#Cc1cscn1)CN1CCCCC1 [1-[3-(4-Thiazolyl)-2-propynyl]piperidine] | 124 | 28.1 | –
C(#Cc1nccs1)CN1CCCCC1 [1-[3-(2-Thiazolyl)-2-propynyl]piperidine] | 182 | 10.2 | –
C(#Cc1cscn1)CN1CCCCC1 [1-[3-(4-Thiazolyl)-2-propynyl]piperidine, hydrochloride] | – | – | IC50 [1, 4]: 114 µM; IC50 ([2]; hydrochloride): 14 µM
Br/C(=C/c1nccs1)CN1CCCC1 [2-[2-Bromo-3-(1-pyrrolidinyl)-1-propenyl]thiazole,(E)] | 90 | – | –
COC(=O)C1=CCCN(C)C1 [arecoline] | – | – | improvement when compared to physostigmine (SDAT patients): more-consistent improvement
CN(C)CC#Cc1cscn1 [--N, --N-Dimethyl-3-(4-thiazolyl)-2-propyn-1-amine] [N,N-Dimethyl-3-(4-thiazolyl)-2-propyn-1-amine] | 504 | 12.9 | –
C(#Cc1cncs1)CN1CCCC1 [5-[3-(1-Pyrrolidinyl)-1-propynyl]thiazole] | 73 | 0.245 | –
CN(C)CC#Cc1cncs1 [N,N-Dimethyl-3-(5-thiazolyl)-2-propyn-1-amine, hydrochloride] | – | – | IC50 [1, 4]: 482 µM
CN(C)C/C(Cl)=C\c1nccs1 [2-Chloro-N,N-dimethyl-3-(2-thiazolyl)-2-propen-1-amine,(E)] | 222 | 1.07 | –
C(#Cc1cscn1)CN1CCCC1 [4-[3-(1-Pyrrolidinyl)-1-propynyl]thiazole] | 71 | 3.95 | –
CN(C)CC#Cc1cncs1 [N,N-Dimethyl-3-(5-thiazolyl)-2-propyn-1-amine] | 765 | 3.38 | –
CC(=O)N(C)C(C)C#CCN1CCCC1 (stereo not shown) [BM-5, N-methyl-N-(1-methyl-4-pyrrolidino-2-butynyl) acetamide] | – | – | postsynaptic cholinergic activity (postsynaptic cholinergic): postsynaptic partial cholinergic agonist; presynaptic cholinergic activity (presynaptic cholinergic): presynaptic cholinergic antagonist
C[N+](C)(C)CC#Cc1nccs1 [N,N,N-Trimethyl-3-(2-thiazolyl)-2-propyn-1-aminium iodide] | – | 0.673 | IC50 [1]: 123 µM
